{"source": "paper PMC8073907", "about": "“Peptide targeting of lysophosphatidylinositol-sensing GPR55 for osteoclastogenesis tuning” (Cell Communication and Signaling : CCS, 2021)", "key": {"[1]": {"biological_target": "T1, murine GPR55 (Mus musculus, UniProt Q3UJF0)", "T1 construct": "endogenous in cells; host or cells: RAW264.7 mouse macrophages (wild-type, or treated with si-NT / si-GPR55 siRNAs)", "test": "Peptide binding to intact RAW264.7 cells (FACS)", "conditions": "FITC-Scr; si-GPR55 + siGLO relative to si-NT + siGLO; 40 µg/mL, 15 min, 37 °C", "procedure": "Wild-type or 48-h-interfered RAW264.7 cells were plated at a density of 1.2 × 10^6 cells/well in six-well plates, and the following day they were used for on-plate-binding assays, or for RNA extraction. Before peptide addition, the cells were washed twice with HBSS^++, and then incubated without or with 40 µg/mL FITC-P1 or FITC-Scr for the indicated times at 37 °C in HBSS^++ plus 0.01% faf-BSA. The incubations were stopped by three washes with PBS, detached by scraping with PBS plus 2 mM EDTA, and then suspended in PBS plus 3% BSA. Fluorescence intensity was evaluated by FACS, and reported as means of cell-associated fluorescence increases compared to cells incubated in absence of peptides.\nTo evaluate peptide-P1 specificity towards murine GPR55, RAW264.7 cells were Gpr55-interfered as above, but the duplexes were previously mixed with the double pmol amount of siGLO Red transfection indicator (Dharmacon). […] FITC-fluorescence intensity was evaluated by FACS, and reported as means of cell-associated fluorescence increases compared to cells incubated in absence of peptides."}, "[2]": {"system": "GPR55-silenced HeLa cells", "test": "LPI-induced ERK1/2 and p38 phosphorylation in shGPR55-HeLa clones (Western blot)", "assay_type": "cell-based, human", "conditions": "10 µM soybean LPI, or 1 µM ionomycin 5 min", "experimental": "For stable interference of GPR55, HeLa cells were plated at 1.5 × 10^5 cells/well in six-well plates in growth medium without antibiotics, and 24 h later, the cells were transfected with 1.7 µg/well OmicsLink short hairpin (sh)RNA expression clone CSHCTR001-CU6 (shCTRL) or clone HSH022476-3-CU6 (shGPR55) from GeneCopoeia (Rockville, MD, USA), using Lipofectamine 2000, according the manufacturer instructions. Forty-eight hours after transfection, HeLa clones stably expressing shRNAs were selected in growth medium containing 0.3 µg/mL puromycin. The efficiency of interference was monitored by real-time PCR using the primers listed in the Additional file 1: Table S1. HPRT1 was followed as a housekeeping gene.\nTwenty-four hours after transfection (HEK293T, HeLa cells or clones) or 72 h after interference (RAW264.7 cells), the cells were washed twice with HBSS^++, serum deprived (HEK293T cells for 4 h in DMEM; HeLa cells and clones for 2 h in MEM plus 2 mM glutamine and 25 mM HEPES; RAW264.7 cells for 2 h in DMEM), washed once again with HBSS^++, incubated in stimulation buffer (HBSS^++ with 10 mM HEPES, 0.4% faf-BSA for HEK293T cells; HBSS^++ with 25 mM HEPES and 0.01% faf-BSA for HeLa cells, clones, and RAW264.7 cells) in the absence or presence of stimuli, at 37 °C for the indicated times. Incubations were terminated by washing the cells twice with cold HBSS^++, and the analyses were performed as reported below.\nCell lysates were obtained by scraping the cells into phospho-lysis buffer: 50 mM Tris–HCl, pH 7.5, 100 mM NaCl, 5 mM EDTA, 1% Triton X-100, 50 mM NaF, 40 mM β-glycerophosphate, 200 µM sodium orthovanadate, plus protease and phosphatase inhibitors (Roche). […]\nProtein lysates were subjected to SDS-PAGE, and after electrophoresis, the proteins were transferred to a nitrocellulose membrane (PerkinElmer Life Science, Boston, MA, USA). […] The membranes were then washed twice with T-TBS and once with TBS for 5 min, and the signals were detected by ECL (Amersham Pharmacia, Piscataway, NJ, USA). […]"}, "[3]": {"biological_target": "peptide-P1 (synthetic construct)", "conditions": "cited from earlier work"}, "[4]": {"biological_target": "human GPR55", "conditions": "ref [38]; read-out: affinity towards human GPR55; cited from earlier work"}, "[5]": {"biological_target": "T2, peptide-P1 (synthetic construct, disulfide 1-9 (inferred))", "T2 chain": "{FITC-Ahx}-CKKNSPTLC", "test": "FACS binding of FITC-peptide to RAW264.7 cells"}}, "note": "Bridge positions count the residues as written; N and C are the ends. Ends that are not written are not given here. Peptide text beside a SMILES is read from it. * marks the point of attachment. FITC = O=C1OC2(c3ccc(O)cc3Oc3cc(O)ccc32)c2ccc(NC(=S)*)cc21; Ahx = NCCCCCC(=O)O"}
{"molecule": "KCLTSNCPK (disulfide 2-7 (inferred)) [FITC-Scr, FITC-conjugated scrambled (…) peptide]", "values": [{"measurement": "effect of Gpr55 interference on binding", "setting": "[1]", "result": "not significantly affected by Gpr55 interference"}]}
{"molecule": "C[C@H](CCC(=O)O)C[C@H](C)C[C@H](C)C(=O)/C=C(\\O)[C@H](C)C[C@H](C)C/C=C/[C@@H](C)[C@@H](O)[C@@H](C)[C@@H](O)C[C@@H]1CC[C@@](C)([C@H]2CC[C@@](C)([C@@H](C)O)O2)O1", "note": "[ionomycin]", "values": [{"measurement": "ERK1/2 and p38 activation", "setting": "[2]", "result": "still activated these pathways"}]}
{"molecule": "GPR55 (from UniProt Q9Y2T6)", "values": [{"measurement": "Kd", "setting": "[3]", "result": 20, "unit": "µM"}]}
{"molecule": "CC(C)C[C@@H]1NC(=O)[C@H]([C@@H](C)O)NC(=O)[C@@H]2CCCN2C(=O)[C@H](CO)NC(=O)[C@H](CC(N)=O)NC(=O)[C@H](CCCCN)NC(=O)[C@H](CCCCN)NC(=O)[C@@H](NC(=O)CCCCCNC(=S)Nc2ccc3c(c2)C(=O)OC32c3ccc(O)cc3Oc3cc(O)ccc32)CSSC[C@@H](C(=O)O)NC1=O", "note": "[FITC-P1] ({FITC-Ahx}-CKKNSPTLC-OH; disulfide 1-9; N-terminus and C-terminus assumed)", "values": [{"measurement": "Kd", "setting": "[4]", "result": 20, "unit": "µM"}]}
{"molecule": "GPR55 (protein) MSQPERDNCSFDSVDKLTRTLQLAVHIPTFLLGLVLNLLAIRGFSAFLKKRKLDYIATSIYMINLAVFDLLLVLSLPFKMVLPQVESPLPSFCTLVECLYFISMYGSVFTICFISLDRFLAIQYPILASHLRSPRKTFGICCIIWMLVWIGSIPIYTFHREVERYKCFHNMSDVTWSASVFFPLEIFGFLLPMGIMGFCSYRSIHILLRRPDSTEDWVQQRDTKGWVQKRACIWTIATNLVIFVVSFLPVHLGFFLQYLVRNRFILDCRMKQGISLFLQLSLCFSNINCCLDVFCYYFVIKEFRMRIKAHRPSTIKLVNQDTMVSRG", "values": [{"measurement": "Kd", "setting": "[5]", "result": 22.7, "unit": "µM"}]}
